What was measured:
[1] = target: T1, glycated haemoglobin (Hb-AGE) (Homo sapiens, UniProt P68871+P69905); test: ELISA binding of IgIV to immobilized Hb-AGE and inhibition studies; conditions: 15 μg/ml IgIV, concentration series of competitor
T1 construct: purchased Sigma-Aldrich H7379
Procedure: Binding of IgIV was determined using an enzyme linked immunosorbent assay (ELISA) set-up. For this purpose 50 μl/well of potential ligands at indicated concentrations or coat buffer only for control and background measurement purposes, were coated overnight at 4° C., with motion, in 50 mM NaHCO3 pH 9.6. Glycated albumin and Hb (BSA-AGE and Hb-AGE), control BSA and control Hb were coated at 5 μg/ml. The BSA and Hb controls were prepared freshly by dissolving lyophilized proteins at 1 mg/ml in PBS upon resuspending by pipetting, followed by a 30′ period at the roller bank, at room temperature. The protein solutions were centrifuged for 10′ at 16,000*g and diluted in coat buffer. Coat controls were performed with anti-glycated protein antibody, anti-albumin antibody, anti-Hb antibody. The alkaline phosphatase-conjugated anti-human Ig antibodies were controlled by coating the IgIV's and overlaying them the secondary antibodies. After coating the plates were washed twice with 50 mM Tris-HCl pH 7.3, 150 mM NaCl, 0.1% v/v Tween20, and blocked with 175 μl/well Blocking reagent (Roche Diagnostics, Almere, The Netherlands; catalogue number 11112589001), for 1 h at room temperature, with motion. Plates were washed twice and incubated in triplicate with indicated antibodies dilution series, plasma dilution series or controls, including binding buffer only, in the absence or presence of putative inhibitors, in binding buffer; PBS/0.1% v/v Tween20, at 50 μl/well, for 1 h at room temperature, with constant motion. After four wash cycles, secondary antibodies were added to the wells, 50 μl/well, for 45′ at room temperature, with motion. RAMPO and SWARPO were used at 2000 times dilution, goat anti-human IgG antibodies were diluted 3000 times, goat anti-human IgM antibodies were diluted 1000 times. After 5 washes with wash buffer followed by two washes with PBS, binding of antibodies was assessed. […] After 5′ absorbance was read at 405 nm. […] After 5′ absorbance was read at 490 nm. […] Triplicates were averaged and standard deviations calculated. […]

[2] = tested on: amyloid-β and glycated albumin; test: ELISA binding of tPA to immobilized amyloid-β and glycated albumin with Congo red or ThT; conditions: concentration series of dye
Procedure: After 5 washes with wash buffer followed by two washes with PBS, binding of antibodies was assessed. […] Triplicates were averaged and standard deviations calculated.

[3] = target: T2, Hb-AGE (glucose-6-phosphate modified human haemoglobin) (Homo sapiens, UniProt P68871+P69905); test: ELISA binding of tPA to immobilized Hb-AGE, compounds co-incubated with tPA; conditions: dye included in the tPA solution
T2 construct: purchased Sigma-Aldrich H7379
T2 sequence (P69905 2-142 limits assumed): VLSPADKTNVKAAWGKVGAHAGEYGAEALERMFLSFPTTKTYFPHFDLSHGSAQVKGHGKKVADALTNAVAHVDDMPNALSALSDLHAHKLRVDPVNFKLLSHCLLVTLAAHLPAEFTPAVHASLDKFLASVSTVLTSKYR
T2 sequence (P68871 2-147 limits assumed): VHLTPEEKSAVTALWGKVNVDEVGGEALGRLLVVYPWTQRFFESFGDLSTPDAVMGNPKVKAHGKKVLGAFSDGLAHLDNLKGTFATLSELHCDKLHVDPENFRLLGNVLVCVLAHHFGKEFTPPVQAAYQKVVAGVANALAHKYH
Procedure: The small compound library is depicted in Tables 4-5. […] Binding experiments were performed in single wells per compound, in a duplicate experiment. Binding data obtained with this duplicate experiment was averaged.
• 1. […] Coat buffer in control wells. • 2. wash three times with wash buffer • 3. Block all wells with 300 μl 0.5*recommended concentration Roche blocking reagent for 30 minutes at room temperature, with agitation • 4. wash twice • 5. […] Incubate for 30 minutes at room temperature, with agitation • 7. wash five times with TBS/0.1% Tween20 • 8. […] Incubate for 30 minutes at room temperature, with agitation • 10. wash five times with TBS/0.1% Tween20 • 11. Fill wells with 3000× diluted horse raddish peroxidase-labeled polyclonal rabbit anti-mouse antibody (RAMPO, DAKOCytomation) • 12. Incubate for 20 minutes at room temperature, with agitation • 13. Wash five times with TBS/0.1% Tween20 • 14. Wash twice with PBS • 15. Stain with 100 μl TMB, stop with 50 μl 10% H2SO4 • 16. Read absorbance at 450 nm

amyloid γ-globulins = test: Inhibition ELISA of monoclonal 7H2H2 binding to immobilized amyloid γ-globulins; parameters: species or system human
Procedure: When binding of a monoclonal antibody to an aggregate with amyloid-like properties was confirmed, the influence of Congo red on this interaction was tested as follows. Amyloid γ-globulins were coated onto a high-binding plate (Greiner Microlon, Bio-One GmbH, Frickenhausen, Germany), blocked with Roche blocking reagent, and overlayed with 10 times diluted hybridoma cell culture medium with a concentration series of Congo red. In addition, the inhibitory effect of compounds with cross-(structure conformation on binding of a monoclonal antibody to immobilized cross-β structure conformation comprising antigens was tested with an ELISA set-up. For this purpose, a limiting amount of antigen, i.e. 0.5 μg ml^−1 amyloid γ-globulins, was immobilized onto a Greiner high-binding plate. It was determined that 80 times diluted hybridoma cell culture supernatant contains an amount of antibody that results in less than maximal signal when used in ELISAs with immobilized proteins with cross-β structure conformation (not shown). Now, concentration series of freshly dissolved-, amyloid-, acid-denatured- and base-denatured γ-globulins at 0.1, 1, 10 and 100 μg ml^−1 was added to the 80 times diluted hybridoma cell culture supernatant, and used to overlay the immobilized amyloid γ-globulins. The amount of bound antibody was determined with RAMPO. […]

factor XII = target: T3, factor XII (Homo sapiens, UniProt P00748); test: ELISA binding of β2GPI to immobilized factor XII; parameters: human factor XII from plasma (Calbiochem); purchased Calbiochem; host or cells: human plasma
T3 sequence (P00748 20-615): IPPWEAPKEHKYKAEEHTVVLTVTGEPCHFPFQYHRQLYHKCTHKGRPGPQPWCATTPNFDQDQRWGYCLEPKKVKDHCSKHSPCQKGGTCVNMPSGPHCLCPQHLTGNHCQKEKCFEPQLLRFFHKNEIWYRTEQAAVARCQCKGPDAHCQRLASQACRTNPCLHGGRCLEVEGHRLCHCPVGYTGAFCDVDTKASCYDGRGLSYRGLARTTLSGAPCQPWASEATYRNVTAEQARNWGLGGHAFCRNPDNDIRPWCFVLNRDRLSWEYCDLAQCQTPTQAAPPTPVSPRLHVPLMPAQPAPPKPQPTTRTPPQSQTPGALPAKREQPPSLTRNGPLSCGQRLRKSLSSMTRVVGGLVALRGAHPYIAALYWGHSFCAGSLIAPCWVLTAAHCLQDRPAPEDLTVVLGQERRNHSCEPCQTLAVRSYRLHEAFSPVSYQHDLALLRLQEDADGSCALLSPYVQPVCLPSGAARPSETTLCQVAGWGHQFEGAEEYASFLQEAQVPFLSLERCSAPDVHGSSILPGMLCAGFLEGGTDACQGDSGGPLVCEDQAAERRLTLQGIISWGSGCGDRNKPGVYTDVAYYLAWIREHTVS
Procedure: (§1) Binding of β2GPI was assessed with monoclonal antibody 2B2^17.

[4] = tested on: anti-β2GPI auto-antibodies from antiphospholipid syndrome patients; test: Interference with binding of anti-β2GPI autoantibodies to immobilized β2GPI; parameters: species or system human; conditions: concentration series of β2GPI in solution
Procedure: β2GPI by recombinant β2GPI and not by plasma derived β2GPI When plasma derived β2GPI is coated onto hydrophilic ELISA plates, anti-β2GPI auto-antibodies isolated from plasma of antiphospholipid syndrome autoimmune patients can bind^18. To study the influence of coincubations of the coated β2GPI with the antibodies together with plasma β2GPI or recombinant β2GPI, concentration series of β2GPI were added to the patient antibodies. Subsequently, binding of the antibodies to coated β2GPI was determined.

tPA = tPA (Homo sapiens, UniProt P00750); test: ELISA binding of β2GPI to immobilized tPA
tPA, sequence (P00750 36-562): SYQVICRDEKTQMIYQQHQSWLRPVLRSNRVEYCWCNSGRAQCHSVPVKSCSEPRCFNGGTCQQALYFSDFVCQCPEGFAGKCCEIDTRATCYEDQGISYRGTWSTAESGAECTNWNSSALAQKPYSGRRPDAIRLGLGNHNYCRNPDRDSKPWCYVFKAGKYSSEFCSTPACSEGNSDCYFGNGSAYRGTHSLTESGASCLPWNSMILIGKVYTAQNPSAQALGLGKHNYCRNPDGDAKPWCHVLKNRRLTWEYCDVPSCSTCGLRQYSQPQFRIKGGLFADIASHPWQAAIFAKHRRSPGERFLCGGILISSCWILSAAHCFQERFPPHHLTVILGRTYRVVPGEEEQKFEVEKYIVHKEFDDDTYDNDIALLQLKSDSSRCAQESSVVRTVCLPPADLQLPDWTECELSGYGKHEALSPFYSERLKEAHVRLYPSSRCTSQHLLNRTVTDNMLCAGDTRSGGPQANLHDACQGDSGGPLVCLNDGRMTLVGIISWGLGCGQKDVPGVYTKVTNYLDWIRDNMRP
Procedure: as §1

T1 sequence (P69905 2-142 limits assumed): as the sequence (P69905 2-142 limits assumed) above
T1 sequence (P68871 2-147 limits assumed): as the sequence (P68871 2-147 limits assumed) above

| Molecule | influence on binding of IgIV to immobilized Hb-AGE [1] | inhibition of tPA binding to immobilized amyloid-β and glycated albumin [2] | influence on binding of tPA to immobilized misfolded protein [3] | inhibition of 7H2H2 binding to amyloid γ-globulins (amyloid γ-globulins; 500 μM Congo red, diluted 7H2H2 cell culture medium) | Congo red concentrations that inhibit binding of 7H2H2 (amyloid γ-globulins; 7H2H2 from 10 times diluted culture medium) | binding to factor XII (factor XII) | inhibition of binding of anti-β2GPI auto-antibodies to immobilized β2GPI [4] | binding to tPA (tPA) |
| --- | --- | --- | --- | --- | --- | --- | --- | --- |
| Cc1ccc2c(c1)sc(-c1ccc(N(C)C)cc1)[n+]2C.[Cl-] [Thioflavin T] | enhance the binding of IgIV | not by ThT | promotes binding of tPA |  |  |  |  |  |
| Nc1c(/N=N/c2ccc(-c3ccc(/N=N/c4cc(S(=O)(=O)O)c5ccccc5c4N)cc3)cc2)cc(S(=O)(=O)O)c2ccccc12 [Congo red] | fully blocks IgIV binding | effectively inhibited | inhibits binding of tPA | approximately 66% | higher than 5 μM |  |  |  |
| plasma β2GPI: β2-glycoprotein I purified from fresh human plasma (protein, UniProt P02749 20-345, looked up) Beta-2-glycoprotein 1: GRTCPKPDDLPFSTVVPLKTFYEPGEEITYSCKPGYVSRGGMRKFICPLTGLWPINTLKCTPRVCPFAGILENGAVRYTTFEYPNTISFSCNTGFYLNGADSAKCTEEGKWSPELPVCAPIICPPPSIPTFATLRVYKPSAGNNSLYRDTAVFECLPQHAMFGNDTITCTTHGNWTKLPECREVKCPFPSRPDNGFVNYPAKPTLYYKDKATFGCHDGYSLDGPEEIECTKLGNWSAMPSCKASCKVPVKKATVVYQGERVKIQEKFKNGMLHGDKVSFFCKNKEKKCSYTEDAQCIDGTIEVPKCFKEHSSLAFWKTDASDVKPC |  |  |  |  |  | not bind | has a minor effect on antibody binding | not bind |

Source: patent US20080267948A1, “Croos-B Structure Binding Compounds” (priority 2005, published 2008)
